From patent US5358951A, “Angiotensin II receptor blocking 2, 3, 6 substituted quinazolinones” (American Cyanamid Company, priority 1993, dated 1994)

Tested on: vasopressor response of angiotensin II
Assay: AII Challenge: antagonism of angiotensin II vasopressor response;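 for Response Average Change: post-dose Angiotensin II-evoked rise in systolic blood pressure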
Assay type: in vivo
Conditions: for inhibition in vivo at 3 mg/kg / inhibition in vivo at 5 mg/kg: Rattus norvegicus; for inhibition in vivo at 3 mg/kg: iv; for inhibition in vivo at 5 mg/kg: po
Source text: Conscious Male Okamoto-Aoki SHR, 16-20 weeks old, weighing approximately 330 g are purchased from Charles River Labs (Wilmington, Mass.). Conscious rats are restrained in a supine position with elastic tape. The area at the base of the tail is locally anesthetized by subcutaneous infiltration with 2% procaine. The ventral caudal artery and vein are isolated, and a cannula made of polyethylene (PE) 10-20 tubing (fused together by heat) is passed into the lower abdominal aorta and vena cava, respectively. The cannula is secured, heparinized (1,000 I.U./ml), sealed and the wound is closed. The animals are placed in plastic restraining cages in an upright position. The cannula is attached to a Statham P23 Db pressure transducer, and pulsatile blood pressure is recorded to 10-15 minutes with a Gould Brush recorder. (Chan et al., (Drug Development Res., 18:75-94, 1989). Angiotensin II (human sequence, Sigma Chem. Co., St. Louis, Mo.) of 0.05 and 0.1 ug/kg i.v. is injected into all rats (predosing response). Then a test compound, vehicle or a known angiotensin II antagonist is administered i.v., i.p. or orally to each set of rats. The two doses of angiotensin II are given to each rat again at 30, 60, 90, 120, 180, 240 and 300 minutes post dosing the compound or vehicle. The vasopressor response of angiotensin II is measured for the increase in systolic blood pressure in mmHg. The percentage of antagonism or blockade of the vasopressor response of angiotensin II by a compound is calculated using the vasopressor response (increase in systolic blood pressure) of angiotensin II of each rat predosing the compound as 100%.

[1] = 3 mg/kg I.V., AII 0.05 mcg/kg IV, 30 min post dose
[2] = 3 mg/kg I.V., AII 0.05 mcg/kg IV, 60 min post dose
[3] = 3 mg/kg I.V., AII 0.05 mcg/kg IV, 90 min post dose
[4] = 3 mg/kg I.V., AII 0.05 mcg/kg IV, 120 min post dose
[5] = 3 mg/kg I.V., AII 0.05 mcg/kg IV, 180 min post dose
[6] = 3 mg/kg I.V., AII 0.05 mcg/kg IV, 240 min post dose
[7] = 3 mg/kg I.V., AII 0.1 mcg/kg IV, 30 min post dose
[8] = 3 mg/kg I.V., AII 0.1 mcg/kg IV, 60 min post dose
[9] = 3 mg/kg I.V., AII 0.1 mcg/kg IV, 90 min post dose
[10] = 3 mg/kg I.V., AII 0.1 mcg/kg IV, 120 min post dose
[11] = 3 mg/kg I.V., AII 0.1 mcg/kg IV, 180 min post dose
[12] = 3 mg/kg I.V., AII 0.1 mcg/kg IV, 240 min post dose
[13] = 0.5 h, 3 mg/kg I.V., AII 0.05 mcg/kg IV, 30 min post dose
[14] = 0.5 h, 3 mg/kg I.V., AII 0.1 mcg/kg IV, 30 min post dose
[15] = 1 h, 3 mg/kg I.V., AII 0.05 mcg/kg IV, 60 min post dose
[16] = 1 h, 3 mg/kg I.V., AII 0.1 mcg/kg IV, 60 min post dose
[17] = 2 h, 3 mg/kg I.V., AII 0.05 mcg/kg IV, 120 min post dose
[18] = 2 h, 3 mg/kg I.V., AII 0.1 mcg/kg IV, 120 min post dose
[19] = 3 h, 3 mg/kg I.V., AII 0.05 mcg/kg IV, 180 min post dose
[20] = 3 h, 3 mg/kg I.V., AII 0.1 mcg/kg IV, 180 min post dose
[21] = 4 h, 3 mg/kg I.V., AII 0.05 mcg/kg IV, 240 min post dose
[22] = 4 h, 3 mg/kg I.V., AII 0.1 mcg/kg IV, 240 min post dose
[23] = […], 3 mg/kg I.V., AII 0.05 mcg/kg IV, 90 min post dose
[24] = […], 3 mg/kg I.V., AII 0.1 mcg/kg IV, 90 min post dose

Question: Which “Response Average Change” value [1] does the source give for `CCCCc1nc2ccc([C@@]3(C)C[C@@H]4CCCCN4O3)cc2c(=O)n1Cc1ccc(-c2ccccc2-c2nnn[nH]2)cc1` (relative stereo) [Example 67, Cis-2-Butyl-6-(hexahydro-2-methyl-2H-isoxazolo[2,3-a]pyridin-2-yl)-3-[[2'-(1H-tetrazol-5-yl)[1,1'-biphenyl]-4-yl]methyl]-4(3H)-quinazolinone] here?
Answer: 20 mmHg

Question: What about the “Response Average Change” value [2] of the same compound?
Answer: 7.5 mmHg

Question: And the “Response Average Change” value [3]?
Answer: 7.5 mmHg

Question: And the “Response Average Change” value [4]?
Answer: 12.5 mmHg

Question: And the “Response Average Change” value [5]?
Answer: 15 mmHg

Question: What about the “Response Average Change” value [6] of the same compound?
Answer: 7.5 mmHg

Question: What about the “Response Average Change” value (3 mg/kg I.V., AII 0.05 mcg/kg IV, 300 min post dose) of the same compound?
Answer: 14 mmHg

Question: And the “Response Average Change” value [7]?
Answer: 14 mmHg

Question: And the “Response Average Change” value [8]?
Answer: 15 mmHg

Question: And the “Response Average Change” value [9]?
Answer: 12.5 mmHg

Question: And the “Response Average Change” value [10]?
Answer: 10 mmHg

Question: What about the “Response Average Change” value [11] of the same compound?
Answer: 11.5 mmHg

Question: And the “Response Average Change” value [12]?
Answer: 11 mmHg

Question: What about the “Response Average Change” value (3 mg/kg I.V., AII 0.1 mcg/kg IV, 300 min post dose) of the same compound?
Answer: 17.5 mmHg

Question: What about the inhibition in vivo at 3 mg/kg [13] of the same compound?
Answer: 61%

Question: And the inhibition in vivo at 3 mg/kg [14]?
Answer: 77%

Question: And the inhibition in vivo at 3 mg/kg [15]?
Answer: 85%

Question: What about the inhibition in vivo at 3 mg/kg [16] of the same compound?
Answer: 75%

Question: And the inhibition in vivo at 3 mg/kg [17]?
Answer: 76%

Question: What about the inhibition in vivo at 3 mg/kg [18] of the same compound?
Answer: 83%

Question: What about the inhibition in vivo at 3 mg/kg [19] of the same compound?
Answer: 71%

Question: What about the inhibition in vivo at 3 mg/kg [20] of the same compound?
Answer: 81%

Question: What about the inhibition in vivo at 3 mg/kg [21] of the same compound?
Answer: 85%

Question: What about the inhibition in vivo at 3 mg/kg [22] of the same compound?
Answer: 82%

Question: What about the inhibition in vivo at 3 mg/kg (5 h, 3 mg/kg I.V., AII 0.05 mcg/kg IV, 300 min post dose) of the same compound?
Answer: 73%

Question: And the inhibition in vivo at 3 mg/kg (5 h, 3 mg/kg I.V., AII 0.1 mcg/kg IV, 300 min post dose)?
Answer: 71%

Question: And the inhibition in vivo at 3 mg/kg [23]?
Answer: 85%

Question: And the inhibition in vivo at 3 mg/kg [24]?
Answer: 79%

Question: Which “Response Average Change” value [1] does the source give for `CCCCc1nc2ccc([C@]3(C)C[C@@H]4CCCN4O3)cc2c(=O)n1Cc1ccc(-c2ccccc2-c2nnn[nH]2)cc1` (relative stereo) [Example 59, Trans-2-Butyl-6-(hexahydro-2-methylpyrrolo[1,2-b]isoxazol-2-yl)-3-[[2'-(1H-tetrazol-5-yl)[1,1'-biphenyl]-4-yl]methyl]-4(3H)-quinazolinone] here?
Answer: 17.5 mmHg

Question: What about the “Response Average Change” value [2] of the same compound?
Answer: 9 mmHg

Question: And the “Response Average Change” value [3]?
Answer: 18.5 mmHg

Question: What about the “Response Average Change” value [4] of the same compound?
Answer: 9.5 mmHg

Question: And the “Response Average Change” value [5]?
Answer: 20 mmHg

Question: What about the “Response Average Change” value [6] of the same compound?
Answer: 18.5 mmHg

Question: What about the “Response Average Change” value [7] of the same compound?
Answer: 21 mmHg

Question: And the “Response Average Change” value [8]?
Answer: 23.5 mmHg

Question: What about the “Response Average Change” value [9] of the same compound?
Answer: 17.5 mmHg

Question: And the “Response Average Change” value [10]?
Answer: 12.5 mmHg

Question: What about the “Response Average Change” value [11] of the same compound?
Answer: 22.5 mmHg

Question: And the “Response Average Change” value [12]?
Answer: 27.5 mmHg

Question: And the “Response Average Change” value (5 mg/kg P.O., AII 0.05 mcg/kg IV, 30 min post dose)?
Answer: 19 mmHg

Question: And the “Response Average Change” value (5 mg/kg P.O., AII 0.05 mcg/kg IV, 60 min post dose)?
Answer: 12.5 mmHg

Question: And the “Response Average Change” value (5 mg/kg P.O., AII 0.05 mcg/kg IV, 90 min post dose)?
Answer: 17.5 mmHg

Question: And the “Response Average Change” value (5 mg/kg P.O., AII 0.05 mcg/kg IV, 120 min post dose)?
Answer: 24 mmHg

Question: And the “Response Average Change” value (5 mg/kg P.O., AII 0.05 mcg/kg IV, 180 min post dose)?
Answer: 18.5 mmHg

Question: And the “Response Average Change” value (5 mg/kg P.O., AII 0.05 mcg/kg IV, 240 min post dose)?
Answer: 12.5 mmHg

Question: What about the “Response Average Change” value (5 mg/kg P.O., AII 0.05 mcg/kg IV, 300 min post dose) of the same compound?
Answer: 12.5 mmHg

Question: What about the “Response Average Change” value (5 mg/kg P.O., AII 0.1 mcg/kg IV, 30 min post dose) of the same compound?
Answer: 22.5 mmHg

Question: And the “Response Average Change” value (5 mg/kg P.O., AII 0.1 mcg/kg IV, 60 min post dose)?
Answer: 12.5 mmHg

Question: What about the “Response Average Change” value (5 mg/kg P.O., AII 0.1 mcg/kg IV, 90 min post dose) of the same compound?
Answer: 17.5 mmHg

Question: What about the “Response Average Change” value (5 mg/kg P.O., AII 0.1 mcg/kg IV, 120 min post dose) of the same compound?
Answer: 17.5 mmHg

Question: And the “Response Average Change” value (5 mg/kg P.O., AII 0.1 mcg/kg IV, 180 min post dose)?
Answer: 14 mmHg

Question: What about the “Response Average Change” value (5 mg/kg P.O., AII 0.1 mcg/kg IV, 240 min post dose) of the same compound?
Answer: 10 mmHg

Question: And the “Response Average Change” value (5 mg/kg P.O., AII 0.1 mcg/kg IV, 300 min post dose)?
Answer: 10 mmHg

Question: And the inhibition in vivo at 3 mg/kg [13]?
Answer: 49%

Question: What about the inhibition in vivo at 3 mg/kg [14] of the same compound?
Answer: 49%

Question: And the inhibition in vivo at 3 mg/kg [15]?
Answer: 74%

Question: And the inhibition in vivo at 3 mg/kg [16]?
Answer: 43%

Question: And the inhibition in vivo at 3 mg/kg [17]?
Answer: 72%

Question: What about the inhibition in vivo at 3 mg/kg [18] of the same compound?
Answer: 70%

Question: What about the inhibition in vivo at 3 mg/kg [19] of the same compound?
Answer: 41%

Question: What about the inhibition in vivo at 3 mg/kg [20] of the same compound?
Answer: 45%

Question: And the inhibition in vivo at 3 mg/kg [21]?
Answer: 46%

Question: And the inhibition in vivo at 3 mg/kg [22]?
Answer: 33%

Question: What about the inhibition in vivo at 3 mg/kg [23] of the same compound?
Answer: 46%

Question: What about the inhibition in vivo at 3 mg/kg [24] of the same compound?
Answer: 57%

Question: What about the inhibition in vivo at 5 mg/kg (0.5 h, 5 mg/kg P.O., AII 0.05 mcg/kg IV, 30 min post dose) of the same compound?
Answer: 49%

Question: And the inhibition in vivo at 5 mg/kg (0.5 h, 5 mg/kg P.O., AII 0.1 mcg/kg IV, 30 min post dose)?
Answer: 49%

Question: And the inhibition in vivo at 5 mg/kg (1 h, 5 mg/kg P.O., AII 0.05 mcg/kg IV, 60 min post dose)?
Answer: 67%

Question: What about the inhibition in vivo at 5 mg/kg (1 h, 5 mg/kg P.O., AII 0.1 mcg/kg IV, 60 min post dose) of the same compound?
Answer: 72%

Question: What about the inhibition in vivo at 5 mg/kg (2 h, 5 mg/kg P.O., AII 0.05 mcg/kg IV, 120 min post dose) of the same compound?
Answer: 36%

Question: What about the inhibition in vivo at 5 mg/kg (2 h, 5 mg/kg P.O., AII 0.1 mcg/kg IV, 120 min post dose) of the same compound?
Answer: 60%

Question: What about the inhibition in vivo at 5 mg/kg (3 h, 5 mg/kg P.O., AII 0.05 mcg/kg IV, 180 min post dose) of the same compound?
Answer: 51%

Question: What about the inhibition in vivo at 5 mg/kg (3 h, 5 mg/kg P.O., AII 0.1 mcg/kg IV, 180 min post dose) of the same compound?
Answer: 68%

Question: And the inhibition in vivo at 5 mg/kg (4 h, 5 mg/kg P.O., AII 0.05 mcg/kg IV, 240 min post dose)?
Answer: 67%

Question: What about the inhibition in vivo at 5 mg/kg (4 h, 5 mg/kg P.O., AII 0.1 mcg/kg IV, 240 min post dose) of the same compound?
Answer: 77%

Question: And the inhibition in vivo at 5 mg/kg (5 h, 5 mg/kg P.O., AII 0.05 mcg/kg IV, 300 min post dose)?
Answer: 67%

Question: And the inhibition in vivo at 5 mg/kg (5 h, 5 mg/kg P.O., AII 0.1 mcg/kg IV, 300 min post dose)?
Answer: 77%

Question: What about the inhibition in vivo at 5 mg/kg ([…], 5 mg/kg P.O., AII 0.05 mcg/kg IV, 90 min post dose) of the same compound?
Answer: 53%

Question: What about the inhibition in vivo at 5 mg/kg ([…], 5 mg/kg P.O., AII 0.1 mcg/kg IV, 90 min post dose) of the same compound?
Answer: 60%
